The numbers were not newly measured in US5196437A, “Method for treating hepatic diseases and regenerating liver tissue using FK 506 and related compounds” (Fujisawa Pharmaceutical Company, Ltd., priority 1990, dated 1993), which cites them from elsewhere.

For data set [1], the system named is liver tissue. The following applies: literature; cited from earlier work.
In data set [2] the test system is liver. Particulars: literature (Starzl et al); cited from earlier work.

As for `Cn1cnc([N+](=O)[O-])c1Sc1ncnc2nc[nH]c12` [Azathioprine], in data set [1], the “regeneration of liver tissue after partial hepatectomy” value is recorded as “depress the regeneration of liver tissue”. Consider glucagon, for which, in data set [2], the hepatotrophic properties entry is given as “does not have the hepatotrophic properties” and the “metabolic effect on the liver” value was “powerful metabolic effect on the liver”.

Turning to insulin, in data set [2], the hepatotrophic properties result is listed as “exhibit hepatotrophic effects similar to those of the present compounds”.
